The values below come from ChEMBL document CHEMBL2331236, “Synthesis and biological evaluation of 1-(2-hydroxy-3-phenyloxypropyl)piperazine derivatives as T-type calcium channel blockers” (Bioorg Med Chem Lett, 2013).

Chain of Voltage-dependent T-type calcium channel subunit alpha-1G (O43497 whole entry): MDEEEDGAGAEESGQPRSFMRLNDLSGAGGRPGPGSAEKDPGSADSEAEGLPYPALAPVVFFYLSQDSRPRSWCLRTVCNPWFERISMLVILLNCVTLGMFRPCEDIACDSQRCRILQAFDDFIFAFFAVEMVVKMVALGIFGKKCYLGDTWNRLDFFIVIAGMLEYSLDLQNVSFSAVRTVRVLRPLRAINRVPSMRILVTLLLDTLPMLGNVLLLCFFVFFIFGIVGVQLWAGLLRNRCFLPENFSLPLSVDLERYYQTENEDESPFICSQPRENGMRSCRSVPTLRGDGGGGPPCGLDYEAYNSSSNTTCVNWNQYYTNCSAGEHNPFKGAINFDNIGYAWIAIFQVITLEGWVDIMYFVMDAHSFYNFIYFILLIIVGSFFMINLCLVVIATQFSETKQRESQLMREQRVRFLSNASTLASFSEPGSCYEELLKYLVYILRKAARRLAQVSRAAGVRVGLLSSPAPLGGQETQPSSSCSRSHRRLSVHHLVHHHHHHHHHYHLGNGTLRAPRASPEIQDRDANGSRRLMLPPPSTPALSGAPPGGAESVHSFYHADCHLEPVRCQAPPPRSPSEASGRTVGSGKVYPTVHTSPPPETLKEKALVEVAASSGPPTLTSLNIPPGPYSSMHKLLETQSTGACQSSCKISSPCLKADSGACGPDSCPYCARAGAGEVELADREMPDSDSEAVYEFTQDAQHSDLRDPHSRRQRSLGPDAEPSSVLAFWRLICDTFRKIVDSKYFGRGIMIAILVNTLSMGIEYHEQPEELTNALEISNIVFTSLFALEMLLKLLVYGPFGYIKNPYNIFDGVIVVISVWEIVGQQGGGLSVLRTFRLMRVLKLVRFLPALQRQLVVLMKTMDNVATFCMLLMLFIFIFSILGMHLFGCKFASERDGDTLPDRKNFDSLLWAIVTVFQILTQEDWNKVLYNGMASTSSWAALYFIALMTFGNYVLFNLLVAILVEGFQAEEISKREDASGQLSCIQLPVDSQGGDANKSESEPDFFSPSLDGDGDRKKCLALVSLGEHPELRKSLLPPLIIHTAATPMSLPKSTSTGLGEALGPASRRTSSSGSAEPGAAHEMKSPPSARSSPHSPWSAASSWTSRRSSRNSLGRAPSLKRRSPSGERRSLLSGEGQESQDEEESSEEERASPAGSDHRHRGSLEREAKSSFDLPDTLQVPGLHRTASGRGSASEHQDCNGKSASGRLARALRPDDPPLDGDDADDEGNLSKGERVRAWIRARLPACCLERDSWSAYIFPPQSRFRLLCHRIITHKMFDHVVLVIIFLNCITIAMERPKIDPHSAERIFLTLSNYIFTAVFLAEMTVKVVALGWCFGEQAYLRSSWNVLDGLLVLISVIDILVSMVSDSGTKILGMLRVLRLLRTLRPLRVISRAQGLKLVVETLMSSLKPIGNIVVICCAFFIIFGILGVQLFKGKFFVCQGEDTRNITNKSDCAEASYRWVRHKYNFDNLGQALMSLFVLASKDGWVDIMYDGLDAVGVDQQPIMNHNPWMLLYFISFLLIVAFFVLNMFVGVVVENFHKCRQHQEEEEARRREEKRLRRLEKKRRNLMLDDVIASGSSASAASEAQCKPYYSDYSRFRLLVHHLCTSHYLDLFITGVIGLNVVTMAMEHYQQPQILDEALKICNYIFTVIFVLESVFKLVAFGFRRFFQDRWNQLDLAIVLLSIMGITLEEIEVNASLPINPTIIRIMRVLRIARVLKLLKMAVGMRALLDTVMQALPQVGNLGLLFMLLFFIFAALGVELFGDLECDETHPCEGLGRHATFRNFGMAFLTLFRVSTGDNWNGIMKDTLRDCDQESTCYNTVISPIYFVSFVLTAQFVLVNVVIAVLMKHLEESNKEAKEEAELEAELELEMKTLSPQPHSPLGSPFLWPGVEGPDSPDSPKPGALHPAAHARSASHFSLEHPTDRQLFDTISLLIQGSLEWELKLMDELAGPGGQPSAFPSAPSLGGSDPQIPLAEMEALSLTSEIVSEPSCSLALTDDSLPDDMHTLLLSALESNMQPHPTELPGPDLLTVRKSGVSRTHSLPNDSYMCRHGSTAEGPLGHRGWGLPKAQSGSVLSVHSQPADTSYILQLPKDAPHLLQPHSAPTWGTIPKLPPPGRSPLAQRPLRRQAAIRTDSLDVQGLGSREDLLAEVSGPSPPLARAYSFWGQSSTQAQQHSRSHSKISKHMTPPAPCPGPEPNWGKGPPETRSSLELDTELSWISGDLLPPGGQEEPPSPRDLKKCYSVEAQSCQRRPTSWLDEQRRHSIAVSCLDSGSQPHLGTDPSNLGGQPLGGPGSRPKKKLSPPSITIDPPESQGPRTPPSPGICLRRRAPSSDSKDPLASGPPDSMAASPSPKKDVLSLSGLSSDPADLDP

The assay has as its target Voltage-dependent T-type calcium channel subunit alpha-1G (Homo sapiens, UniProt O43497). The assay can be described thus: Inhibition of alpha-1G calcium channel in human HEK293 cells at 10 uM by FDSS6000 fluorescence-based assay.
For the molecule `O[C@@H](COc1ccc(F)cc1)CN1CCN(c2ccc(F)cc2)CC1`, the inhibition worked out at 47.5%.

Take `O[C@@H](COc1ccc(C(F)(F)F)cc1)CN1CCN(c2ccccc2F)CC1`: the inhibition was 50.2%. To `COc1ccccc1N1CCN(C[C@@H](O)COc2ccc(Cl)cc2)CC1` belongs 47.4%. To `O[C@H](COc1ccc(F)cc1)CN1CCN(c2ccc(F)cc2)CC1` belongs 50%; to `O[C@@H](COc1ccc(F)cc1)CN1CCN(Cc2ccc(Cl)cc2)CC1`, 50.1%; to `O[C@H](COc1ccc(C(F)(F)F)cc1)CN1CCN(c2ccccc2F)CC1`, 48.9%.

Take `O[C@@H](COc1ccc(Cl)cc1)CN1CCN(Cc2ccccc2F)CC1`: the inhibition amounted to 35.8%. To `O[C@@H](COc1ccc(F)cc1)CN1CCN(c2ccccc2F)CC1` belongs 51.1%; to `O[C@@H](COc1ccc(C(F)(F)F)cc1)CN1CCN(c2ccc(F)cc2)CC1`, 53.7%. Next, `O[C@H](COc1ccc(C(F)(F)F)cc1)CN1CCN(Cc2cccc(Cl)c2)CC1`: 43.4%.

Turning to `O[C@H](COc1ccc(Cl)cc1)CN1CCN(Cc2cccc(Cl)c2)CC1`, the inhibition was 52.2%. To `O[C@@H](COc1ccc(C(F)(F)F)cc1)CN1CCN(Cc2ccc(Cl)cc2)CC1` belongs 61.5%. To `COc1cccc(N2CCN(C[C@@H](O)COc3ccc(Cl)cc3)CC2)c1` belongs 44.6%; to `COc1ccccc1N1CCN(C[C@@H](O)COc2ccc(F)cc2)CC1`, 50.7%.

`O[C@@H](COc1ccc(Cl)cc1)CN1CCN(c2ccccc2F)CC1`: the inhibition was found to be 46.9%. To `O[C@@H](COc1ccc(F)cc1)CN1CCN(Cc2ccccc2F)CC1` belongs 23.8%; to `O[C@H](COc1ccc(Cl)cc1)CN1CCN(Cc2ccc(Cl)c(Cl)c2)CC1`, 41.2%; to `COc1ccccc1N1CCN(C[C@H](O)COc2ccc(F)cc2)CC1`, 41%. For `COc1ccccc1N1CCN(C[C@H](O)COc2ccc(Cl)cc2)CC1`, the inhibition is 48.8%. To `O[C@H](COc1ccc(C(F)(F)F)cc1)CN1CCN(Cc2ccc(Cl)c(Cl)c2)CC1` belongs 45.6%.

In the case of `COc1cccc(N2CCN(C[C@@H](O)COc3ccc(C(F)(F)F)cc3)CC2)c1`, the inhibition is 43.9%. For `O[C@@H](COc1ccc(Cl)cc1)CN1CCN(c2ccc(F)cc2)CC1`, the inhibition was 39.7%. Next, `COc1cccc(N2CCN(C[C@H](O)COc3ccc(Cl)cc3)CC2)c1`: 46%; `O[C@H](COc1ccc(F)cc1)CN1CCN(Cc2ccccc2F)CC1`: 20.3%. To `O[C@@H](COc1ccc(C(F)(F)F)cc1)CN1CCN(Cc2ccccc2F)CC1` belongs 45.5%; to `O[C@@H](COc1ccc(Cl)cc1)CN1CCN(Cc2ccc(Cl)cc2)CC1`, 42.1%. For `COc1cccc(N2CCN(C[C@H](O)COc3ccc(F)cc3)CC2)c1`, the inhibition amounted to 44.5%.

The term inhibition denotes the percentage by which the read-out fell short of the control.
